# What was measured:
# Pseudomonas aeruginosa = assay: Antibacterial activity against Pseudomonas aeruginosa ATCC 27853; type: functional
# Enterococcus faecium = assay: Antibacterial activity against Enterococcus faecium ATCC 19434; type: functional
# [1] = biological target: T1, Phospho-N-acetylmuramoyl-pentapeptide-transferase (Aquifex aeolicus (strain VF5), UniProt O66465); assay: Inhibition of MraY in Aquifex aeolicus
# T1 sequence (O66465 whole entry): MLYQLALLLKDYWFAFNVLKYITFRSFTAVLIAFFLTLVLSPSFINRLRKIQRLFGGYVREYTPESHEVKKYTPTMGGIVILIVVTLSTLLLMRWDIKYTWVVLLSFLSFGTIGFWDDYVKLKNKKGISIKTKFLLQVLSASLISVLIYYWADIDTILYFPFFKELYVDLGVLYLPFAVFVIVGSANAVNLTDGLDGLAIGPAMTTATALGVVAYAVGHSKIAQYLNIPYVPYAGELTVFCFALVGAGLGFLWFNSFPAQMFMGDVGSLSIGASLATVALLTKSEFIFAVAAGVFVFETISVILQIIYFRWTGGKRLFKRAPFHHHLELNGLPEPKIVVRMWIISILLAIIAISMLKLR
# Staphylococcus aureus [2] = assay: Antibacterial activity against methicillin resistant Staphylococcus aureus ATCC 43300; type: functional
# Escherichia coli [3] = assay: Antibacterial activity against Escherichia coli ATCC 8730; type: functional
# Citrobacter freundii = assay: Antibacterial activity against Citrobacter freundii ATCC 8090; type: functional
# Staphylococcus aureus [4] = assay: Antibacterial activity against Staphylococcus aureus ATCC 25923; type: functional
# Haemophilus influenzae = assay: Antibacterial activity against Haemophilus influenzae ATCC 10211; type: functional
# Enterococcus faecalis [5] = assay: Antibacterial activity against Enterococcus faecalis SR7914 (VRE); type: functional
# Enterococcus faecalis [6] = assay: Antibacterial activity against Enterococcus faecalis ATCC 29212; type: functional
# [7] = biological target: T2, Phospho-N-acetylmuramoyl-pentapeptide-transferase (Bacillus subtilis (strain 168), UniProt Q03521); assay: Inhibition of MraY in Bacillus subtilis
# T2 sequence (Q03521 whole entry): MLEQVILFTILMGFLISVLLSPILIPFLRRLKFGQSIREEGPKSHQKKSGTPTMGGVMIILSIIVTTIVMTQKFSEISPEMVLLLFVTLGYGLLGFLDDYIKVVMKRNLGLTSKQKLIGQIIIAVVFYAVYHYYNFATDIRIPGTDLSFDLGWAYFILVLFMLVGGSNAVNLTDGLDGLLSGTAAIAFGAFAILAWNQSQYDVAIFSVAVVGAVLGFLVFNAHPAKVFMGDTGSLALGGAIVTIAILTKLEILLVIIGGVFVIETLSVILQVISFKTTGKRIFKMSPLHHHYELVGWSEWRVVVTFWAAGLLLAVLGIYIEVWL
# Streptococcus pneumoniae = assay: Antibacterial activity against Streptococcus pneumoniae PCI 602; type: functional
# Mycolicibacterium phlei = assay: Antibacterial activity against Mycobacterium phlei; type: functional
# Staphylococcus aureus [8] = assay: Antibacterial activity against methicillin resistant Staphylococcus aureus No. 5; type: functional
# [9] = system: Mycobacterium avium subsp. paratuberculosis; assay: Antibacterial activity against Mycobacterium avium subsp. paratuberculosis ATCC 43015; type: functional
# Staphylococcus aureus [10] = assay: Antibacterial activity against Staphylococcus aureus FDA 209P; type: functional
# Escherichia coli [11] = assay: Antibacterial activity against Escherichia coli K-12; type: functional
# Staphylococcus aureus [12] = assay: Antibacterial activity against methicillin resistant Staphylococcus aureus MS16526; type: functional
# [13] = system: Mycobacterium tuberculosis; assay: Antibacterial activity against Mycobacterium tuberculosis Kurono; type: functional
# Mycolicibacterium vaccae = assay: Antibacterial activity against Mycobacterium vaccae ATCC 15483; type: functional
# [14] = system: Mycobacterium tuberculosis; assay: Antibacterial activity against Mycobacterium tuberculosis JCM 6384; type: functional
# Bacillus subtilis = assay: Antibacterial activity against Bacillus subtilis PCI 219; type: functional
# [15] = system: Mycobacterium tuberculosis; assay: Antibacterial activity against Mycobacterium tuberculosis H37Rv; type: functional
# [16] = system: Mycolicibacterium smegmatis; assay: Antibacterial activity against Mycobacterium smegmatis ATCC 607; type: functional
# [17] = Antibacterial activity against Mycobacterium avium subsp. avium ATCC 25291; type: functional
Compound,MIC (Pseudomonas aeruginosa),MIC (Enterococcus faecium),MIC (Staphylococcus aureus [2]),MIC (Escherichia coli [3]),MIC (Citrobacter freundii),MIC (Staphylococcus aureus [4]),MIC (Streptococcus pneumoniae),MIC (Mycolicibacterium phlei),MIC (Staphylococcus aureus [8]),MIC [9],MIC (Staphylococcus aureus [10]),MIC (Escherichia coli [11]),MIC (Staphylococcus aureus [12]),MIC [13],MIC (Mycolicibacterium vaccae),MIC [14],MIC (Bacillus subtilis),MIC [15],MIC [16],MIC [17],other results
CCCCCCCCCCn1cc(C[C@H](O[C@@H]2O[C@H](CN)[C@@H](O)[C@H]2O)[C@H]2O[C@@H](n3ccc(=O)[nH]c3=O)[C@H](O)[C@@H]2O)nn1,> 128 µg/mL,> 128 µg/mL,64 µg/mL,> 128 µg/mL,> 128 µg/mL,128 µg/mL,–,–,–,–,–,–,–,–,–,–,–,–,–,–,IC50 [1]: 15 µM
CCCCCCCCCCCCCCCC(=O)OC[C@@H]1[C@H](C(=O)N(C)C)[C@@H]([C@H]2O[C@@H](n3ccc(=O)[nH]c3=O)[C@H](O)[C@@H]2O)ON1CCCN,–,–,–,–,–,–,–,–,–,–,–,–,–,–,–,–,–,–,–,–,MIC (Haemophilus influenzae): 0.5 µg/mL; MIC (Enterococcus faecalis [5]): 4 µg/mL; MIC (Enterococcus faecalis [6]): 16 µg/mL
NC[C@H]1O[C@@H](O[C@@H](Cc2cn(CCCCCCCCCCc3ccccc3)nn2)[C@H]2O[C@@H](n3ccc(=O)[nH]c3=O)[C@H](O)[C@@H]2O)[C@H](O)[C@@H]1O,> 128 µg/mL,64 µg/mL,16 µg/mL,> 128 µg/mL,> 128 µg/mL,32 µg/mL,–,–,–,–,–,–,–,–,–,–,–,–,–,–,IC50 [1]: 20 µM
NC[C@H]1O[C@@H](O[C@@H](Cn2cc(CCCCCCCCCCOc3ccc(C(=O)c4ccccc4)cc3)nn2)[C@H]2O[C@@H](n3ccc(=O)[nH]c3=O)[C@H](O)[C@@H]2O)[C@H](O)[C@@H]1O,> 128 µg/mL,128 µg/mL,8 µg/mL,> 128 µg/mL,> 128 µg/mL,16 µg/mL,–,–,–,–,–,–,–,–,–,–,–,–,–,–,IC50 [1]: 25 µM
NC[C@H]1O[C@@H](O[C@@H](c2cn(CCCCCOc3ccc(C(=O)c4ccccc4)cc3)nn2)[C@H]2O[C@@H](n3ccc(=O)[nH]c3=O)[C@H](O)[C@@H]2O)[C@H](O)[C@@H]1O,> 128 µg/mL,> 128 µg/mL,64 µg/mL,> 128 µg/mL,> 128 µg/mL,> 128 µg/mL,–,–,–,–,–,–,–,–,–,–,–,–,–,–,IC50 [7]: 100 µM
CCCCCCCCCNC(=O)C1=CCN(C)[C@@H]([C@H](O[C@@H]2O[C@H](CN)[C@@H](O)[C@H]2O)[C@H]2O[C@@H](n3ccc(=O)[nH]c3=O)[C@H](O)[C@@H]2O)C(=O)N1C,–,–,–,–,–,–,> 100 µg/mL,3.13 µg/mL,50 µg/mL,0.2 µg/mL,6.25 µg/mL,> 100 µg/mL,50 µg/mL,0.78 µg/mL,12.5 µg/mL,0.2 µg/mL,1.56 µg/mL,1.56 µg/mL,0.78 µg/mL,1.56 µg/mL,–
CCCCCCNC(=O)C1=CCN(C)[C@@H]([C@H](O[C@@H]2O[C@H](CN)[C@@H](O)[C@H]2O)[C@H]2O[C@@H](n3ccc(=O)[nH]c3=O)[C@H](O)[C@@H]2O)C(=O)N1C,–,–,–,–,–,–,> 100 µg/mL,100 µg/mL,> 100 µg/mL,0.78 µg/mL,> 100 µg/mL,> 100 µg/mL,> 100 µg/mL,1.56 µg/mL,100 µg/mL,1.56 µg/mL,25 µg/mL,3.16 µg/mL,50 µg/mL,12.5 µg/mL,–
CCCCCCCCCCCCCCCCCCOC(=O)C1=CCN(C)[C@@H]([C@H](O[C@@H]2O[C@H](CN)[C@@H](O)[C@H]2O)[C@H]2O[C@@H](n3ccc(=O)[nH]c3=O)[C@H](O)[C@@H]2O)C(=O)N1C,–,–,–,–,–,–,> 100 µg/mL,> 100 µg/mL,50 µg/mL,3.13 µg/mL,25 µg/mL,> 100 µg/mL,50 µg/mL,3.13 µg/mL,> 100 µg/mL,6.25 µg/mL,3.13 µg/mL,6.25 µg/mL,> 100 µg/mL,12.5 µg/mL,–
CCCCCCCCCCCCCCNC(=O)C1=CCN(C)[C@@H]([C@H](O[C@@H]2O[C@H](CN)[C@@H](O)[C@H]2O)[C@H]2O[C@@H](n3ccc(=O)[nH]c3=O)[C@H](O)[C@@H]2O)C(=O)N1C,–,–,–,–,–,–,12.5 µg/mL,0.78 µg/mL,6.25 µg/mL,0.39 µg/mL,3.13 µg/mL,> 100 µg/mL,3.13 µg/mL,1.56 µg/mL,1.56 µg/mL,0.39 µg/mL,0.2 µg/mL,1.56 µg/mL,1.56 µg/mL,3.13 µg/mL,–

# Source: ChEMBL document CHEMBL4402510, “Caprazamycins: Promising lead structures acting on a novel antibacterial target MraY” (Eur J Med Chem, 2019)
